Reference: patent US20260053812A1, “METHODS OF TREATING HYPERTENSION WITH A COMBINATION OF AN ALDOSTERONE SYNTHASE INHIBITOR AND A DIURETIC” (Mineralys Therapeutics, Inc., priority 2022, published 2026)
Several values for one entry are separate records, joined by “and”; a condition that tells them apart may be missing. Identical values can stand only once.

How the values were obtained:
Assay type in all cases: in vivo, human
serum cortisol = experiment: Pharmacodynamics: serum cortisol; conditions: for Cortisol, mean observed: BL
Description: (§1) PK/PD Analysis Set includes all subjects in the SAF who have sufficient data available for the analysis of pharmacokinetic and pharmacodynamic measurements. In the analyses based on PKPD, subjects will be analyzed according to the actual treatment received.

11-deoxycorticosterone = experiment: Pharmacodynamics: 11-deoxycorticosterone
Description: as §1

11-deoxycortisol = experiment: Pharmacodynamics: plasma 11-deoxycortisol; conditions: for 11-Deoxycortisol, mean observed: BL
Description: as §1

serum aldosterone = experiment: Pharmacodynamics: serum aldosterone; conditions: for Aldosterone, mean observed: BL; for Aldosterone levels relative to baseline: Part 1 lorundrostat-treated (range across doses)
Description: as §1

[1] = system: subjects with uncontrolled hypertension; experiment: Seated automated office blood pressure (AOBP), randomized placebo-controlled dose-ranging study; conditions: for Automated office DBP, mean CFB at Week 8: Part 1
Method: A randomized, double-blinded, placebo-controlled, dose-ranging, multicenter study was conducted to evaluate the effect of orally administered Compound A HBr on blood pressure for the treatment of hypertension in male and female subjects ≥18 years of age.
The study consists of two parts. For enrollment into Part 1 of the study, a subject's value of plasma renin activity (PRA) must be ≤1 ng/mL/h based on morning measurement. If the value of PRA >1 ng/mL/h based on morning measurement, then subjects may be eligible to enter Part 2 of the study.
For Part 1, 163 enrolled subjects ≥18 years of age were randomized into 6 equal treatment groups (1:1:1:1:1:1) to 12.5 mg BID, 25 mg BID, 12.5 mg QD, 50 mg QD, 100 mg QD, or placebo. After a review of interim clinical data, the 2 lowest dose levels (12.5 mg QD and 12.5 mg BID) were stopped for future randomization due to a lack of consistent meaningful reduction of blood pressure, but the patients randomized to that point remained in the study through completion. Thus, after the review of interim clinical data, subjects were randomized into 4 equal treatment groups (1:1:1:1) to 25 mg BID, 50 mg QD, 100 mg QD, or placebo.
For Part 2, 36 enrolled subjects ≥18 years of age were randomized (5:1) to either 100 mg QD Compound A HBr or placebo such that the Compound A HBr treatment group consisted of approximately 30 subjects and the placebo treatment group will consist of approximately 6 subjects.
Subjects orally administered the assigned study drug (Compound A HBr or placebo) according to the assigned dosing regimen for 8 weeks beginning on Study Day 1. All subjects in Part 1 (regardless of dosing group) received BID dosing to preserve the integrity of the blind; active drug is administered as the morning dose for all QD dose groups. Subjects returned to the research facility or were seen by the clinical investigator or approved home health care professional at the end of Study Weeks 1, 2, 3, 4, 5, 6, 7, and 8 (±2 days) for protocol-defined efficacy and safety assessments and procedures, assessment of adverse events (AEs), and confirmation of compliance with study drug usage. Subjects also completed a telephone visit and blood pressure (BP) check at home approximately 3 days post last dose of study drug. Subjects attended up to 14 full clinic visits, including a pre-Screening visit, a Screening/start of Placebo Run-in visit, a second visit during Placebo Run-in, a clinic visit to initiate the ABPM procedure, a Randomization visit, 8 weekly visits during double-blind treatment, and an end-of-study visit scheduled 4 weeks after the last study treatment for final efficacy and safety assessments.
An automated oscillometric sphygmomanometer device was used to measure the subjects' systolic and diastolic blood pressure in office after approximately 5 minutes of rest in the seated position.
The primary endpoint is the change in office-measured (mean of last 2 of 5 unattended measurements using an automated oscillometric sphygmomanometer device after approximately 5 minutes of rest in the seated position) systolic blood pressure (SBP) from baseline to the end of Study Week 8.
Secondary endpoints of this study were: • (a) Change in 24-hour ambulatory blood pressure monitoring (ABPM) parameters (systolic and diastolic) from baseline to the end of Study Week 7. • (b) Change in office-measured SBP from baseline to the end of Study Weeks 1, 2, 3, 4, 5, 6, and 7. • (c) Change in office-measured diastolic blood pressure (DBP) from baseline to the end of Study Weeks 1, 2, 3, 4, 5, 6, 7, and 8. • (d) Proportion of subjects who achieve office-measured BP of ≤130/80 mm Hg by the end of Study Week 8.
For AOBP measurements and any other clinical or laboratory variable for which there are replicate evaluations at the screening and baseline visits, baseline is defined as the mean of the last two non-missing values prior to first administration of the IMP for the double-blinded treatment period.

[2] = Part 1 active treatment arms, Week 4 compared with placebo

Structure (SMILES): CC(=O)N[C@H]1CC[C@H](NC(=O)CN2CCN(c3nncc(-c4ccc(C)cc4)n3)CC2)CC1 [Compound A HBr]
- Cortisol, mean observed (serum cortisol; Part 1, 12.5 mg BID): 10.195 µg/dL
- Cortisol, mean observed (serum cortisol; Part 1, 12.5 mg QD): 9.443 µg/dL
- Cortisol, mean observed (serum cortisol; Part 1, 25 mg BID): 10.577 µg/dL
- Cortisol, mean observed (serum cortisol; Part 1, 50 mg QD): 10.807 µg/dL
- Cortisol, mean observed (serum cortisol; Part 1, 100 mg QD): 11.272 µg/dL
- Serum cortisol percent change from baseline (serum cortisol; Part 1 active arms (range across doses), Week 4): 3.8% to 19.2%
- Serum cortisol percent change from baseline (serum cortisol; Part 1 active arms (range across doses), Week 8): 20.6% to 51.4%
- Serum cortisol percent change from baseline (serum cortisol; Part 1 active arms (range across doses), Week 12, listed as lorundrostat): −1.2% to 22.7% and −1.2 to 22.6%
- Serum cortisol percent change from baseline (serum cortisol; Part 2 100 mg QD, Week 12): 1.5%
- Cortisol, mean observed (serum cortisol; Part 2, 100 mg QD): 11.118 µg/dL
- Serum cortisol percent change from baseline (serum cortisol; Part 2, 100 mg QD, Week 4): 20.1%
- Serum cortisol percent change from baseline (serum cortisol; Part 2, 100 mg QD, Week 8): 153.4%
- Adrenocortical insufficiency (serum cortisol; during the trial, listed as lorundrostat): no adrenocortical insufficiency
- Effect on serum cortisol (serum cortisol; pooled (Part 1 and Part 2) 100 mg QD safety set (n=60)): no effects on serum cortisol
- Morning serum cortisol levels (serum cortisol; summary of trial): modestly increased
- 11-Deoxycorticosterone, mean observed (11-deoxycorticosterone; Part 1, 12.5 mg BID, Wk 12): 8.0 ng/dL
- 11-Deoxycorticosterone, mean observed (11-deoxycorticosterone; Part 1, 12.5 mg QD, BL): 8.3 ng/dL
- 11-Deoxycorticosterone, mean observed (11-deoxycorticosterone; Part 1, 25 mg BID, Wk 12): 8.0 ng/dL
- 11-Deoxycorticosterone, mean observed (11-deoxycorticosterone; Part 1, 50 mg QD, BL): 8.3 ng/dL
- 11-Deoxycorticosterone, mean observed (11-deoxycorticosterone; Part 1, 100 mg QD, Wk 12): 8.4 ng/dL
- 11-deoxycorticosterone (11-deoxycorticosterone; [2]): Transient increases
- 11-Deoxycorticosterone, mean observed (11-deoxycorticosterone; Part 2, 100 mg QD, BL): 10.71 ng/dL
- 11-deoxycorticosterone levels (11-deoxycorticosterone; summary of trial): unaffected
- 11-Deoxycortisol, mean observed (11-deoxycortisol; Part 1, 12.5 mg BID): 28.36 ng/dL
- 11-Deoxycortisol, mean observed (11-deoxycortisol; Part 1, 12.5 mg QD): 29.07 ng/dL
- 11-Deoxycortisol, mean observed (11-deoxycortisol; Part 1, 25 mg BID): 25.87 ng/dL
- 11-Deoxycortisol, mean observed (11-deoxycortisol; Part 1, 50 mg QD): 31.14 ng/dL
- 11-Deoxycortisol, mean observed (11-deoxycortisol; Part 1, 100 mg QD): 29.97 ng/dL
- 11-deoxycortisol (11-deoxycortisol; [2]): Transient increases
- 11-Deoxycortisol, mean observed (11-deoxycortisol; Part 2, 100 mg QD): 40.79 ng/dL
- Aldosterone, mean observed (serum aldosterone; Part 1, 12.5 mg BID): 6.636 ng/dL
- Aldosterone, mean observed (serum aldosterone; Part 1, 12.5 mg QD): 7.065 ng/dL
- Aldosterone, mean observed (serum aldosterone; Part 1, 25 mg BID): 6.558 ng/dL
- Aldosterone, mean observed (serum aldosterone; Part 1, 50 mg QD): 6.205 ng/dL
- Aldosterone, mean observed (serum aldosterone; Part 1, 100 mg QD): 6.533 ng/dL
- Aldosterone levels relative to baseline (serum aldosterone; Week 4): −40.1% to 7.4%
- Aldosterone levels relative to baseline (serum aldosterone; Week 12): −26.6% to 15.9%
- Aldosterone, mean observed (serum aldosterone; Part 2, 100 mg QD): 6.435 ng/dL
- Serum aldosterone levels (serum aldosterone; pharmacodynamic response across doses): dose-dependent reduction
- Placebo-corrected mean change in AOBP systolic BP, Full-analysis set ([1]; 100 mg, Part-1 and Part-2 (interim) combined, N=58 active): −9.9 mmHg
- Automated office DBP, mean CFB at Week 8 ([1]; 12.5 mg BID, BMI <25 kg/m^2): 6.00 mmHg
- Automated office DBP, mean CFB at Week 8 ([1]; 50 mg QD, Seated SBP Tertile Low): −2.42 mmHg
- Automated office DBP, mean CFB at Week 8 ([1]; 100 mg QD, BMI 25-30 kg/m^2): −6.50 mmHg
- Automated office DBP, mean CFB at Week 8 ([1]; 100 mg QD, Seated SBP Tertile Middle): −6.17 mmHg
- Automated office DBP, mean CFB at Week 8 ([1]; 100 mg QD, thiazide diuretic use at baseline No): −4.00 mmHg
- Blood pressure reduction in individuals receiving a thiazide diuretic as background medication ([1]; observed across dosing cohorts): particularly effective
- Blood pressure reduction in individuals with BMI greater than 30 ([1]; observed across dosing cohorts): particularly effective
- Subjects with change in BPsys >−15 mmHg ([1]; pooled 50 mg QD, 100 mg QD, 12.5 mg BID, 25 mg BID cohorts (N=103), week 8): 41%
